Numbers after ± are expanded uncertainties.
Settings: 101.33 kPa, Liquid; for speed of sound: Sing-around technique in a fixed-path interferometer; for mass density: Vibrating tube method

| SMILES | speed of sound (293.15 K) | mass density (293.15 K) | speed of sound (298.15 K) | mass density (298.15 K) | speed of sound (303.15 K) | mass density (303.15 K) |
| --- | --- | --- | --- | --- | --- | --- |
| CCCNCCC [dipropylamine] | 1209.2 ± 1.4 m/s | 738.188 ± 0.32 kg/m3 | 1187.7 ± 1.3 m/s | 733.683 ± 0.32 kg/m3 | 1167.1 ± 1.3 m/s | 729.087 ± 0.32 kg/m3 |
| CCN(CC)CC [triethylamine] | 1132.8 ± 1 m/s | 727.515 ± 0.22 kg/m3 | 1111.1 ± 1 m/s | 722.822 ± 0.22 kg/m3 | 1090.7 ± 1 m/s | 718.201 ± 0.22 kg/m3 |
| CCCCNCCCC [dibutylamine] | 1261.2 ± 1 m/s | 759.571 ± 0.2 kg/m3 | 1241.3 ± 1 m/s | 755.457 ± 0.2 kg/m3 | 1222.5 ± 1 m/s | 751.329 ± 0.21 kg/m3 |
| CCC(C)=O [butanone] | 1212.3 ± 1 m/s | 805.351 ± 0.19 kg/m3 | 1191 ± 1 m/s | 800.077 ± 0.19 kg/m3 | 1170.8 ± 1 m/s | 794.779 ± 0.19 kg/m3 |

— the NIST ThermoML archive (doi:10.1016/j.tca.2010.09.004)
